Values quoted from earlier work as cited in US20100331927A1, “FEEDBACK-CONTROLLED METHOD FOR DELIVERING PHOTODYNAMIC THERAPY AND RELATED INSTRUMENTATION” (priority 2007, published 2010).

Tested on: rat bladder tumor model
Conditions: 60s/60s light interval/dark interval

SMILES: C=Cc1c(C)c2cc3nc(cc4[nH]c(cc5nc(cc1[nH]2)C(C)=C5CCC(=O)O)c(CCC(=O)OC)c4C)C1(C)C3=CC=C(C(=O)OC)C1C(=O)OC (stereo not shown) [BPD-MA]
- improvement of phototoxicity by light fractionation: 1000 fold
